Tested on: CREB
Assay: H2O2-induced CREB phosphorylation in astrocytes (ELISA)
Assay type: cell-based, rat
Conditions: astrocytes pretreated 2 h, H2O2 175 μM 30 min; total CREB not affected
Protocol: Astrocytes were treated with TTF 2 h before the addition of H2O2. Cells were lysed 40 minutes after the addition of H2O2 in lysis buffer supplied by PathScan sandwich ELISA kit (Cell Signaling TECHNOLOGY) according to the manufacturer's protocol. Protein concentrations in cell lysates were determined by Bradford reagent (Bio-Rad, Hercules, Calif.), and equal amounts of proteins were subjected to ELISA. To measure the amount of total and phosphoSAPK/JNK in cell lysates of astrocytes, ELISA was performed according to the manufacturer's protocol using the PathScan total SAPK/JNK sandwich ELISA kit (Cell Signaling TECHNOLOGY) and the PathScan phospho-SAPK/JNK (Thr183/Tyr185) sandwich ELISA kit (Cell Signaling TECHNOLOGY), respectively. […] The optical density was determined at 450 nm using a microplate reader.
1. […] Determine the optical density at 450 nm using a microplate reader.
Astrocytes were treated with 175 μM of H2O2 for 30 min following preincubation with TTF for 2 h. The levels of phosphorylated and total CREB were measured by ELISA. […]

**Q.** Which “inhibition of H2O2-induced phosphorylation of CREB” value does the source give for `COc1cc(-c2oc3cc(OC)c(OC)c(O)c3c(=O)c2O)ccc1O` [TTF, 3,5,4′-trihydroxy-6,7,3′-trimethoxyflavone] here?
**A.** Its value is 80%.
